From patent US20120115842A1 (priority 2004, published 2012)

Target: T1, human vasopressin V1b receptor (Homo sapiens, UniProt P47901)
T1 construct: expressed in transfected cells; host or cells: CHO-K1 (cell line hV1b-3H2_CHO), membranes
T1 sequence (P47901 1-424): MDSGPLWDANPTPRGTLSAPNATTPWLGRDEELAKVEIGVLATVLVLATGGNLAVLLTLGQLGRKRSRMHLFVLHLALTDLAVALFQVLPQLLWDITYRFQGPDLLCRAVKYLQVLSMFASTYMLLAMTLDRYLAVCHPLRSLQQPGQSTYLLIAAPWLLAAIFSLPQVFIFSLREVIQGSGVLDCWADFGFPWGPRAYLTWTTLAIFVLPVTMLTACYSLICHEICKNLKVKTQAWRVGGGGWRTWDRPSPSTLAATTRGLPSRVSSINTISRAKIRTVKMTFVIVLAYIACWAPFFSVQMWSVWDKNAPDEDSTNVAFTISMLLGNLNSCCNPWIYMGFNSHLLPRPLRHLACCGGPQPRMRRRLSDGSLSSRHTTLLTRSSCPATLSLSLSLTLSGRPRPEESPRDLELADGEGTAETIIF
Experiment: Vasopressin V1b receptor binding assay (3H-AVP displacement)
Conditions: for Ki: membranes from CHO-K1 cells with stably expressed human V1b receptors, 1.5 nM 3H-AVP, read-out: affinity constants (Ki) for the human vasopressin V1b receptor; for selectivity vis-a-vis V1b by comparison with V1a, V2 and/or OT: quotient of Ki values: Ki(V1a)/Ki(V1b), Ki(V2)/Ki(V1b) and/or Ki(OT)/Ki(V1b)
Description: The test substances were dissolved in a concentration of 10^−2 M in DMSO and further diluted to 5×10^−4 M to 5×10^−9 M in DMSO. These DMSO solutions were diluted 1:10 with assay buffer. The substance concentration was again diluted 1:5 in the assay mixture.
CHO-K1 cells with stably expressed human vasopressin V1b receptor (clone 3H2) were harvested and homogenized in 50 mM Tris-HCl and in the presence of protease inhibitors (Roche complete Mini #1836170) with a Polytron homogenizer at a medium setting for 2×10 seconds and subsequently centrifuged at 40 000×g for 1 h. The membrane pellet was again homogenized and centrifuged as described and then taken up in 50 mM Tris-HCl, pH 7.4, homogenized and stored in aliquots frozen in liquid nitrogen at −190° C.
The binding assay was carried out by a method based on that of Tahara et al. (Tahara A et al., Brit. J. Pharmacol. 125, 1463-1470 (1998)). The incubation buffer was: 50 mM Tris, 10 mM MgCl2, 0.1% BSA, pH 7.4.
In the assay mixture (250 μl), membranes (50 μg/ml protein in incubation buffer) from CHO-K1 cells with stably expressed human V1b receptors (cell line hV1b—3H2_CHO) were incubated with 1.5 nM ^3H-AVP (8-Arg-vasopressin, PerkinElmer #18479) in incubation buffer (50 mM Tris, 10 mM MgCl2, 0.1% BSA, pH 7.4) (total binding) or additionally with increasing concentrations of test substance (displacement experiment). The nonspecific binding was determined with 1 uM AVP (Bachem # H1780). All determinations were carried out as triplicate determinations. After incubation (60 minutes at room temperature), the free radioligand was removed by vacuum filtration (Skatron cell harvester 7000) through Wathman G F/B glass fiber filter mats, and the filters were transferred into scintillation vials. The liquid scintillation measurement took place in a Tricarb model 2000 or 2200CA instrument (Packard). Conversion of the measured cpm into dpm was carried out with the aid of a standard quench series.
The binding parameters were calculated by nonlinear regression in SAS. The algorithms of the program operate in analogy to the LIGAND analysis program (Munson P J and Rodbard D, Analytical Biochem. 107, 220-239 (1980)). The Kd of ^3H-AVP for the recombinant […] receptors is 0.4 nM and was used to determine the Ki value.

Compound | Ki | selectivity vis-a-vis V1b by comparison with V1a, V2 and/or OT
COc1ccc(S(=O)(=O)N2C(=O)C(c3ccccc3OC)(N3CC(O)CC3C(=O)N(C)C)c3cc(C#N)ccc32)c(OC)c1 (single isomer, unassigned; (+)) [Example 16] | – | improved selectivity
COc1ccc(S(=O)(=O)N2C(=O)C(c3ccccc3OC)(N3C[C@H](O)C[C@H]3C(=O)N(C)C)c3cc(C#N)ccc32)cc1 (stereo partly drawn) [Example 19, (−)-(2S,4R)-1-[5-Cyano-1-(4-methoxybenzenesulfonyl)-3-(2-methoxyphenyl)-2-oxo-2,3-dihydro-1H-indol-3-yl]-4-hydroxypyrrolidine-2-dimethylcarboxamide] | < 100 nM | improved selectivity
COc1ccc(S(=O)(=O)N2C(=O)C(c3ccccc3OC)(N(C)[C@@H](C)C(=O)N(C)C)c3cc(C#N)ccc32)cc1 (mixture of isomers) [Example 15] | < 100 nM | improved selectivity

Other lines, results leading:

Ki | selectivity vis-a-vis V1b by comparison with V1a, V2 and/or OT | Compound
< 100 nM | improved selectivity | COc1ccc(S(=O)(=O)N2C(=O)C(c3ccccc3OC)(N3CC(O)CC3C(=O)N(C)C)c3cc(C#N)ccc32)c(OC)c1 (single isomer, unassigned) [Example 1]
< 100 nM | improved selectivity | COc1ccc(S(=O)(=O)N2C(=O)C(c3ccccc3OC)(N3CCC[C@H]3C(=O)N(C)C)c3cc(C#N)ccc32)cc1 (single isomer, unassigned; (+)) [Example 17b]
